Earlier results on 1 compound are cited in US8461086B2, “Microcapsule composition for inhibiting an ethylene response in plants, method for preparing microcapsules, and method using the microcapsule composition” (Lytone Enterprise, Inc., priority 2009, dated 2013).

In one data set the test system is plants. Particulars: applied to plants.
The subject of the next data set is humans and livestock. Conditions: within the effective concentration range.

For `CC1=CC1` [Example 1-MCP, 1-methylcyclopropene], the effective dosages with plants is given as 0.1 to 1.0 ppm (vol/vol). Besides, the “harm to humans and livestock” value in the data set with humans and livestock is on record as “does no harm”.
